# Several values for one entry are separate records, joined by “and”; a condition that tells them apart may be missing. Identical values can stand only once. Like-named read-outs stand apart in the source and are kept apart here.
# How the values were obtained:
# [1] = biological target: T1, Coxsackie virus 3C protease (Coxsackievirus B3, UniProt P03313); test: ESI-MS of protease after incubation with inhibitor (covalent modification); assay type: binding; conditions: deconvoluted ESI-MS, main peak
# T1 construct: 3C protease of Coxsackie virus B3 consisting of 183 amino-acid residues; made in house; host or cells: E. coli BL21(DE3), plasmid pET-23a(+)
# Procedure: This inactivation rate corresponded to an apparent half-maximal inhibitory concentration (IC50) value of >>1 mM after 10 min (Fig. 2b, Table 1). The covalent mode of action was confirmed by electrospray ionization high-resolution ion mobility spectrometry-mass spectrometry (ESI-MS) measurements. Incubation of the protease with warhead 1 shifted the main deconvoluted mass peak of the protein from 21,471.5 to 21,588.5 Da and the observed protein mass difference of 117 Da corresponded well with the molecular weight of bis-electrophile 1 after hydrolysis of the ethyl ester.
# High-resolution mass spectra were recorded on a Synapt G2-S HDMS by Waters Co. (Milford, […]) equipped with an Acquity UPLC and a Phenomenex Jupiter C-18 column (3 × 250 mm, 5 μm, 300 Å). The ionization and transfer parameters of the MS system have been optimized for a standard sample (insulin) and were applied without modification. Deconvolution of measurement results was performed by the MaxEnt1 method of the MassLynx software by Waters Co. The most important source parameters are: capillary voltage: 3.3 kV, sampling cone: 40 V, source offset: 60 V, source temperature: 100 °C, desolvation temperature: 250 °C, desolvation gas flow: 600 l h^−1. […]
# CVB3 3C protease = biological target: T2, CVB3 3C protease (Coxsackievirus B3, UniProt P03313); test: FRET-based enzyme activity assay (warhead activation / inhibitor kinetics); assay type: biochemical, Coxsackie virus B3; conditions: for kinact/KI: relative inactivation rate, slope of kobs against inhibitor concentration
# T2 construct: 3C protease of Coxsackie virus B3 consisting of 183 amino-acid residues; made in house; host or cells: E. coli BL21(DE3), plasmid pET-23a(+)
# Procedure: The activity of the protease was measured by hydrolysis of the FRET-substrate N-Dabcyl-KTLEALFQ↓GPPVYE(Edans)-NH2. The peptide was purchased from Biosyntan (Berlin, Germany). Samples were irradiated with light with a wavelength of 355 nm and the emitted light at 538 nm was measured in relative fluorescence units (RFUs). An amount of 100 pmol of cleaved substrate equals 5,000 RFU.
# Assay samples contained 10 μl of a 100 mM HEPES-NaOH buffer solution pH 7.5/1 mM EDTA, 10 μl enzyme solution (2 μM CVB3 3C^Pro), 10 μl of 10 μM substrate solution (both dissolved in the above buffer) and 1 μl Inhibitor and/or fragment dissolved in DMSO. For assay results of a dilution series of a mixture of 1 and 2 and comparison of reaction products in dependence of the assay solvent, see Supplementary Figs 1 and 2.
# The screening procedure consisted of the following steps: 10 μl 100 mM HEPES-NaOH buffer solution pH 7.5/1 mM EDTA was placed in a cavity of the 384-well plate (polystyrene, Corning 3544). Then 10 μl of enzyme solution (40 μM CVB3 3C protease in 100 mM HEPES-NaOH buffer solution, pH 7.5/1 mM EDTA) was added and the plate was shaken for 2 min at 1,400 r.p.m. Afterwards, 0.5 μl of a DMSO solution of the electrophilic probe and 0.5 μl of a DMSO solution of the nucleophile was added, followed by 10 μl of substrate solution (10 μM in 100 mM HEPES-NaOH buffer solution, pH 7.5/1 mM EDTA). The plate was shaken again for 2 min at 1,400 r.p.m. and the generated fluorescence signal was measured with a Safire II Fluorimeter from Tecan. The electrophilic probe 1 was used at a concentration of 400 μM for the screening, which lowered the protease activity by 10–20%. Eight-hundred fifty primary amines were tested at a concentration of 320 μM and fragment 2 amplified the inhibitory activity of 1 most potently. Positive control samples contained only DMSO instead of the probe or the nucleophile. Negative control samples contained no active enzyme. An interfering fluorescent effect has not been observed.
# When determining the inhibitory parameters of an inhibitor, the assay set-up was as mentioned but 1 μl DMSO solution of inhibitor was used instead of probe or nucleophile. Different concentrations of inhibitor were tested at least as duplicates and the pseudo-first-order association kinetics (kobs) were determined using GraphPad Prism. The slope of a plot of the different kobs values against the inhibitor concentration yielded kinact/KI.
# EV-D68 3C protease = biological target: T3, EV-D68 3C protease (Human enterovirus D68, UniProt Q68T42); test: In vitro proteolytic activity assay (HPLC, 3 h incubation); assay type: biochemical; conditions: for reduction of protease activity: protein inhibitor stoichiometries of 1:1 and 1:3; for IC50: fixed enzyme concentration, 3 h incubation, read-out: IC50 HEV-D68
# T3 construct: a panel of six additional rhinoviral and enteroviral 3C proteases; purchased European Virus Archive
# Procedure: (§1) For 12 and 14, the inhibitory activity decreased for EV-B93>PSV-1>ERBV-1>AiV-1>EV-D68>HRV-A49.
# (§2) A volume of 100 μl of reaction mixture containing 1.9 μM 3C protease, 25 μM substrate peptide, 5% DMSO, buffer (30 mM Tris pH 8.0, and 50 mM NaCl or 50 mM HEPES pH 7.4 and 50 mM NaCl) and (optionally) different concentrations of inhibitor was incubated in 37 °C during 3 h. The reaction was quenched by addition of 0.5% (final concentration) TFA. Samples were analysed by HPLC on SOURCE 15RPC ST 4.6/100 column using: 2–90% linear gradient of ACN in 0.1% TFA. The 3C protease activity in the absence of inhibitor was defined as 100%. The following peptides (GL Biochem, Shanghai, China) were dissolved in DMSO at a concentration of 5 mM and used for testing 3C proteases activity (Table 3).
# PSV-1 3C protease = PSV-1 3C protease (Porcine sapelovirus 1, UniProt Q8JJT0); test: as above; assay type: biochemical; conditions: for reduction of protease activity: protein inhibitor stoichiometries of 1:1 and 1:3; for IC50: fixed enzyme concentration, 3 h incubation
# Procedure: as §1, §2
# ERBV-1 3C protease = ERBV-1 3C protease (Equine rhinitis B virus 1, UniProt Q66776); test: as above; assay type: biochemical; conditions: for reduction of protease activity: protein inhibitor stoichiometries of 1:1 and 1:3; for IC50: fixed enzyme concentration, 3 h incubation
# Procedure: as §1, §2
# EV-B93 3C protease = EV-B93 3C protease (Enterovirus B93 (species Enterovirus B), UniProt Q5DSM6); test: as above; assay type: biochemical, human enterovirus B93; conditions: for reduction of protease activity: protein inhibitor stoichiometries of 1:1 and 1:3; for IC50: fixed enzyme concentration, 3 h incubation; for inhibition of the enzyme: one inhibitor equivalent
# Procedure: as §1, §2
# HRV-A49 3C protease = HRV-A49 3C protease (Rhinovirus A49, UniProt A5GZE5); test: as above; assay type: biochemical, human rhinovirus A49; conditions: for reduction of protease activity: protein inhibitor stoichiometries of 1:1 and 1:3; for IC50: fixed enzyme concentration, 3 h incubation
# Procedure: as §1, §2
# AiV-1 3C protease = biological target: T4, AiV-1 3C protease (Aichi virus, UniProt O91464); test: as above; assay type: biochemical, Aichi virus 1; conditions: for reduction of protease activity: protein inhibitor stoichiometries of 1:1 and 1:3; for IC50: fixed enzyme concentration, 3 h incubation
# T4 construct: a panel of six additional rhinoviral and enteroviral 3C proteases; purchased European Virus Archive
# Procedure: as §1, §2
# Chymotrypsin = test: Side reactivity testing against different proteases; assay type: biochemical; conditions: for IC50: 50 mM MOPS-NaOH pH 8.0 / 154 mM NaCl, 1.6 mM AF-AMC as substrate; for activity against chymotrypsin, in words: at concentrations of 100 μM
# Procedure: (§3) The four enzymes cover a broad range of S1-preferences, namely for arginine/lysine (trypsin, factor Xa), hydrophobic residues (chymotrypsin) and aspartate (caspase-3).
# (§4) Supplementary Table 3. Side reactivity testing of selected compounds against different
# (§5) Cpd# Structure Trypsin1) Chymotrypsin2) Human factor Xa3) Human Caspase-34) […]
# 2) in 50 mM MOPS-NaOH pH 8.0 / 154 mM NaCl with 1.6 mM AF-AMC as substrate. […]
# CBV 3C protease = biological target: T5, CBV 3C protease (Coxsackievirus B3, UniProt P03313); test: In vitro proteolytic activity assay (3 h incubation); assay type: biochemical, Coxsackie virus B3; conditions: fixed enzyme concentration
# T5 construct: 3C protease of Coxsackie virus B3 consisting of 183 amino-acid residues; made in house; host or cells: E. coli BL21(DE3), plasmid pET-23a(+)
# Procedure: as §2
# Human factor Xa = Human factor Xa (Homo sapiens, UniProt P00742); test: Side reactivity testing against different proteases; assay type: biochemical; conditions: for IC50: 50 mM MOPS-NaOH pH 8.0 / 154 mM NaCl, 114 µM Boc-LGR-AMC as substrate; for activity against factor Xa, in words: at concentrations of 100 μM
# Human factor Xa, sequence (P00742 235-488 limits assumed): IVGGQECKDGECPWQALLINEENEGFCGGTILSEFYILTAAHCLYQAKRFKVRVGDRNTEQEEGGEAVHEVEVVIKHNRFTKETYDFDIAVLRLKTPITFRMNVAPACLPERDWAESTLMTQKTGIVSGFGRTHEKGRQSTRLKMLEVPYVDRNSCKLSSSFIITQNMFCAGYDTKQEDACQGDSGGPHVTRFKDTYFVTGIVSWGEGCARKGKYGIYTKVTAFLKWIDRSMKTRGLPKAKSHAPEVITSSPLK
# Human factor Xa, sequence (P00742 41-179 partner limits assumed): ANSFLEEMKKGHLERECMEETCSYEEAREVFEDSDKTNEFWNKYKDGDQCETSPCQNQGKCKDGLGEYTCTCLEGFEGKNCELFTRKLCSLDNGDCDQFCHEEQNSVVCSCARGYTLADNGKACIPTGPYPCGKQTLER
# Procedure: as §3, §4, §5
# 3) in 50 mM MOPS-NaOH pH 8.0 / 154 mM NaCl with 114 µM Boc-LGR-AMC as substrate; […]
# Trypsin = test: as above; assay type: biochemical; conditions: 50 mM MOPS-NaOH pH 8.0 / 154 mM NaCl, 57 µM Boc-LGR-AMC as substrate
# Procedure: as §3, §4
# Cpd# Structure Trypsin1) Chymotrypsin2) Human factor Xa3) Human Caspase-34)
# 1) in 50 mM MOPS-NaOH pH 8.0 / 154 mM NaCl with 57 µM tert. butyloxycarbonyl (Boc)-LGR-7-amino-4-
# methylcoumarin (AMC) as substrate; […]
# Human Caspase-3 = biological target: T6, Human Caspase-3 (Homo sapiens, UniProt P42574); test: as above; assay type: biochemical; conditions: for IC50: 50 mM HEPES-NaOH pH 7.5, 10 µM acetyl-DEVD-AMC as substrate; for activity against caspase-3, in words: at concentrations of 100 μM
# T6 sequence (P42574 29-175 limits assumed): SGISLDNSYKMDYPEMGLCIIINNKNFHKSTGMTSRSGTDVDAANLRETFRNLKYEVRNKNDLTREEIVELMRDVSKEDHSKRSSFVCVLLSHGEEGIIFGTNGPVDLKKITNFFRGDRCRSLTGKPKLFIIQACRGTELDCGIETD
# T6 sequence (P42574 176-277 limits assumed): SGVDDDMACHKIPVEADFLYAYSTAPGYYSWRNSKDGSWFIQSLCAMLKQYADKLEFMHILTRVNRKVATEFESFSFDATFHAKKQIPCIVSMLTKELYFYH
# Procedure: as §3, §4, §5
# 4) in 50 mM HEPES-NaOH pH 7.5 / 100 mM NaCl / 1 mM EDTA / 0.1% (w/v) CHAPS / 10% (v/v) glycerol /2 mM DTT
# with 10 µM acetyl-DEVD-AMC as substrate;
SMILES,kinact/KI (CVB3 3C protease),reduction of protease activity (EV-D68 3C protease),reduction of protease activity (PSV-1 3C protease),reduction of protease activity (ERBV-1 3C protease),reduction of protease activity (EV-B93 3C protease),reduction of protease activity (HRV-A49 3C protease),reduction of protease activity (AiV-1 3C protease),IC50 (EV-D68 3C protease),IC50 (PSV-1 3C protease),IC50 (ERBV-1 3C protease),IC50 (Chymotrypsin),"activity against chymotrypsin, in words (Chymotrypsin)",IC50 (CBV 3C protease),IC50 (EV-B93 3C protease),inhibition of the enzyme (EV-B93 3C protease),IC50 (HRV-A49 3C protease),kinact/KI (CVB3 3C protease; read-out: kinact/KI),IC50 (Human factor Xa),"activity against factor Xa, in words (Human factor Xa)",IC50 (Trypsin),also measured
"CCOC(=O)[C@H]1O[C@@H]1C=O [Compound 1, ethyl (2S,3S)-epoxy-4-oxo-butanoate]",2.36 M⁻¹ s⁻¹ and 2.4 ± 0.1 M⁻¹ s⁻¹,,,,,,,,,,,,,,,,,,,,"observed protein mass difference after incubation [1]: 117 Da; inhibition of the protease, in words (CVB3 3C protease): virtually inactive; IC50 (CVB3 3C protease; after 10 min, read-out: apparent half-maximal inhibitory concentration (IC50)): > 1000 µM; lowering of protease activity (CVB3 3C protease; probe at 400 μM, screening): 10–20%"
CCOC(=O)/C=C\C(=O)Nc1cc(=O)[nH]n1C1CCCCCC1 [Compound 12],606 M⁻¹ s⁻¹ and 606.4 ± 24.9 M⁻¹ s⁻¹,strongly reduced the activity,strongly reduced the activity,strongly reduced the activity,strongly reduced the activity,strongly reduced the activity,strongly reduced the activity,,,,,,,,,,,,,,
CCNC(=O)/C=C\C(=O)Nc1cc(=O)[nH]n1C1CCCCCC1 [Compound 14],63.1 ± 3.1 M⁻¹ s⁻¹,,,,,,,> 20 µM,8 µM,> 10 µM,> 500 µM,inactive,13 µM,4 µM,fully inhibited,> 20 µM,63 M⁻¹ s⁻¹,> 500 µM,inactive,> 500 µM,"fold reduction of inactivation rate relative to ethyl ester 12 (CVB3 3C protease): 10 fold; IC50 (AiV-1 3C protease): 9 µM; IC50 (Human Caspase-3): > 500 µM; activity against caspase-3, in words (Human Caspase-3): inactive"
O=C(/C=C/S(=O)(=O)c1ccccc1)Nc1cc(=O)[nH]n1C1CCCCCC1 [Compound 20],"1,007 M^−1 s^−1 and 1,007.7±102.2 M^−1 s^−1",strongly reduced the activity,strongly reduced the activity,strongly reduced the activity,strongly reduced the activity,strongly reduced the activity,strongly reduced the activity,1 µM,0.3 µM,0.5 µM,> 500 µM,inactive,0.4 µM,0.2 µM,fully inhibited,0.3 µM,1010 M⁻¹ s⁻¹,> 500 µM,inactive,> 500 µM,"IC50 (AiV-1 3C protease): 0.5 µM; IC50 (Human Caspase-3): > 300 µM; activity against caspase-3, in words (Human Caspase-3): inactive"

# Reference: PMC5052702 (Nature Communications, 2016)
